Test results: patent US20240218022A1, “ANTI-VISTA MACROCYCLIC PEPTIDES AND COMPOSITIONS” (BRISTOL-MYERS SQUIBB COMPANY, priority 2022, published 2024)
Positions of bridges follow the written chain, without caps; N, C: chain ends. Non-standard residues stand in square brackets, D forms with d. Residues, ends and D or L forms follow the SMILES beside them. ξ: configuration not given here. NMeIle(3ξ) = CCC(C)[C@H](NC)C(=O)O; NMeD = CN[C@@H](CC(=O)O)C(=O)O; NMeL = CN[C@@H](CC(C)C)C(=O)O; Ahp(2) = CCCCC[C@H](N)C(=O)O; NMeNle = CCCC[C@H](NC)C(=O)O; Tle = CC(C)(C)[C@H](N)C(=O)O; NHexGly = CCCCCCNCC(=O)O; Nle = CCCC[C@H](N)C(=O)O; Orn = NCCC[C@H](N)C(=O)O

Biological target: T1, mouse VISTA (mVISTA) (Mus musculus, UniProt Q9D659)
T1 construct: expressed in transfected cells; host or cells: Human embryonic kidney 293T cells
T1 sequence (Q9D659 33-308): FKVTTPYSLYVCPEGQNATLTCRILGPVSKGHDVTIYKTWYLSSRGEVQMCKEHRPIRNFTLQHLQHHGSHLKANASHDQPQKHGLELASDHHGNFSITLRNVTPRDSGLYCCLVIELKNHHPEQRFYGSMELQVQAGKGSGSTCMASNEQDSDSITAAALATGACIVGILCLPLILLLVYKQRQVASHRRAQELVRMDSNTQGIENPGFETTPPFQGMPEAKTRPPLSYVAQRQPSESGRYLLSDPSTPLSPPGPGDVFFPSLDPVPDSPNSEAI
Test: Cell-Based Binding High-Content Assay For mVISTA (HC CBA mVISTA)
Settings: read-out: HC CBA mVISTA IC50
Summary of the method: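 293T cells expressing mouse VISTA, with compounds added either after seeding ("no wash") or before seeding and then washed out after 1 h. Biotinylated peptide 2 nM for 30 min at room temperature, then detection with Alexa 647–streptavidin. After fixation with Hoechst stain, plates were high-content imaged; IC50 from four-parameter logistic fit.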

SMILES: CCCCCCN1CC(=O)N[C@@H](Cc2ccc(O)cc2)C(=O)N[C@@H](CCCC)C(=O)N[C@@H](CC(=O)O)C(=O)N[C@@H](CCCN)C(=O)N[C@@H](CC(C)C)C(=O)N[C@@H](CCCCC)C(=O)N2CCC[C@H]2C(=O)N[C@@H](C(C)C)C(=O)N[C@@H](CC(=O)O)C(=O)N[C@H](C(=O)N[C@@H](CO)C(N)=O)CSCC(=O)N[C@@H](Cc2ccccc2)C(=O)N[C@@H](Cc2c[nH]c3ccccc23)C(=O)N[C@@H](CC(=O)O)C1=O [Example 1365] ({CH2CO}-FWD[NHexGly]Y[Nle]D[Orn]L[Ahp(2)]PVDCS-NH2; thioether N-14)
- IC50: 7.7 nM

SMILES: CCCCCCN1CC(=O)N[C@@H](Cc2ccc(O)cc2)C(=O)N[C@@H](CCCC)C(=O)N[C@@H](CC(=O)O)C(=O)N[C@@H](CCCNC(=N)N)C(=O)N[C@@H](CC(C)C)C(=O)N[C@@H](CCCCC)C(=O)N2CCC[C@H]2C(=O)N[C@@H](C(C)C)C(=O)N[C@@H](CC(=O)O)C(=O)N[C@H](C(=O)N[C@@H](CO)C(N)=O)CSCC(=O)N[C@@H](Cc2ccccc2)C(=O)N[C@@H](Cc2c[nH]c3ccccc23)C(=O)N[C@@H](CC(=O)O)C1=O [Example 1366] ({CH2CO}-FWD[NHexGly]Y[Nle]DRL[Ahp(2)]PVDCS-NH2; thioether N-14)
- IC50: 11.6 nM

SMILES: CCCCCCN1CC(=O)N[C@@H](Cc2ccc(O)cc2)C(=O)N[C@@H](CCCC)C(=O)N[C@@H](CC(N)=O)C(=O)N[C@@H](CCCNC(=N)N)C(=O)N(C)[C@@H](C(C)CC)C(=O)N[C@@H](CCCCC)C(=O)N2CCC[C@H]2C(=O)N[C@@H](C(C)C)C(=O)N[C@@H](CC(=O)O)C(=O)N[C@H](C(=O)NCC(=O)O)CSCC(=O)N[C@@H](Cc2ccccc2)C(=O)N[C@@H](Cc2c[nH]c3ccccc23)C(=O)N[C@@H](CC(=O)O)C1=O (stereo partly drawn) [Example 1367] ({CH2CO}-FWD[NHexGly]Y[Nle]NR[NMeIle(3ξ)][Ahp(2)]PVDCG-OH; thioether N-14)
- IC50: 11.1 nM

SMILES: CCCCCCN1CC(=O)N[C@@H](Cc2ccc(O)cc2)C(=O)N[C@@H](CCCC)C(=O)N[C@@H](CC(N)=O)C(=O)N[C@@H](CCCNC(=N)N)C(=O)N(C)[C@@H](CC(=O)O)C(=O)N[C@@H](CCCCC)C(=O)N2CCC[C@H]2C(=O)N[C@@H](C(C)C)C(=O)N[C@@H](CC(=O)O)C(=O)N[C@H](C(=O)NCC(=O)O)CSCC(=O)N[C@@H](Cc2ccccc2)C(=O)N[C@@H](Cc2c[nH]c3ccccc23)C(=O)N[C@@H](CC(=O)O)C1=O [Example 1368] ({CH2CO}-FWD[NHexGly]Y[Nle]NR[NMeD][Ahp(2)]PVDCG-OH; thioether N-14)
- IC50: 37 nM

SMILES: CCCCCCN1CC(=O)N[C@@H](Cc2ccc(O)cc2)C(=O)N[C@@H](CCCC)C(=O)N[C@@H](CC(N)=O)C(=O)N[C@@H](CCCNC(=N)N)C(=O)N(C)[C@@H](CC(C)C)C(=O)N[C@@H](CCCCC)C(=O)N2CCC[C@H]2C(=O)N[C@@H](C(C)C)C(=O)N[C@@H](CC(=O)O)C(=O)N[C@H](C(=O)NCC(=O)O)CSCC(=O)N[C@@H](Cc2ccccc2)C(=O)N[C@@H](Cc2c[nH]c3ccccc23)C(=O)N[C@@H](CC(=O)O)C1=O [Example 1369] ({CH2CO}-FWD[NHexGly]Y[Nle]NR[NMeL][Ahp(2)]PVDCG-OH; thioether N-14)
- IC50: 3.5 nM

SMILES: CCCCCCN1CC(=O)N[C@@H](Cc2ccc(O)cc2)C(=O)N[C@@H](CCCC)C(=O)N[C@@H](CC(N)=O)C(=O)N[C@@H](CCCNC(=N)N)C(=O)N(C)[C@@H](CC(C)C)C(=O)N[C@@H](CCCCC)C(=O)N2CCC[C@H]2C(=O)N[C@@H](C(C)C)C(=O)N[C@@H](CC(=O)O)C(=O)N[C@H](C(=O)N[C@@H](CO)C(=O)O)CSCC(=O)N[C@@H](Cc2ccccc2)C(=O)N[C@@H](Cc2c[nH]c3ccccc23)C(=O)N[C@@H](CC(=O)O)C1=O [Example 1370] ({CH2CO}-FWD[NHexGly]Y[Nle]NR[NMeL][Ahp(2)]PVDCS-OH; thioether N-14)
- IC50: 18.7 nM

SMILES: CCCCCCN1CC(=O)N[C@@H](Cc2ccc(O)cc2)C(=O)N[C@@H](CCCC)C(=O)N[C@@H](CC(N)=O)C(=O)N[C@@H](CCCNC(=N)N)C(=O)N(C)[C@@H](CCCC)C(=O)N[C@@H](CCCCC)C(=O)N2CCC[C@H]2C(=O)N[C@@H](C(C)(C)C)C(=O)N[C@@H](CC(=O)O)C(=O)N[C@H](C(=O)N[C@@H](CC(=O)O)C(N)=O)CSCC(=O)N[C@@H](Cc2ccccc2)C(=O)N[C@@H](Cc2c[nH]c3ccccc23)C(=O)N[C@@H](CC(=O)O)C1=O [Example 1371] ({CH2CO}-FWD[NHexGly]Y[Nle]NR[NMeNle][Ahp(2)]P[Tle]DCD-NH2; thioether N-14)
- IC50: 36.6 nM

SMILES: CCCCCCN1CC(=O)N[C@@H](Cc2ccc(O)cc2)C(=O)N[C@@H](CCCC)C(=O)N[C@@H](CC(=O)O)C(=O)N[C@@H](CCCN)C(=O)N(C)[C@@H](CCCC)C(=O)N[C@@H](CCCCC)C(=O)N2CCC[C@H]2C(=O)N[C@@H](C(C)(C)C)C(=O)N[C@@H](CC(=O)O)C(=O)N[C@H](C(=O)N[C@@H](CC(=O)O)C(N)=O)CSCC(=O)N[C@@H](Cc2ccccc2)C(=O)N[C@@H](Cc2c[nH]c3ccccc23)C(=O)N[C@@H](CC(=O)O)C1=O [Example 1372] ({CH2CO}-FWD[NHexGly]Y[Nle]D[Orn][NMeNle][Ahp(2)]P[Tle]DCD-NH2; thioether N-14)
- IC50: 16.4 nM

SMILES: CCCCCCN1CC(=O)N[C@@H](Cc2ccc(O)cc2)C(=O)N[C@@H](CCCC)C(=O)N[C@@H](CC(N)=O)C(=O)N[C@@H](CCCN)C(=O)N(C)[C@@H](CCCC)C(=O)N[C@@H](CCCCC)C(=O)N2CCC[C@H]2C(=O)N[C@@H](C(C)(C)C)C(=O)N[C@@H](CC(=O)O)C(=O)N[C@H](C(=O)N[C@@H](CC(=O)O)C(N)=O)CSCC(=O)N[C@@H](Cc2ccccc2)C(=O)N[C@@H](Cc2c[nH]c3ccccc23)C(=O)N[C@@H](CC(=O)O)C1=O [Example 1373] ({CH2CO}-FWD[NHexGly]Y[Nle]N[Orn][NMeNle][Ahp(2)]P[Tle]DCD-NH2; thioether N-14)
- IC50: 14.8 nM

SMILES: CCCCCCN1CC(=O)N[C@@H](Cc2ccc(O)cc2)C(=O)N[C@@H](CCCC)C(=O)N[C@@H](CC(N)=O)C(=O)N[C@@H](CCCN)C(=O)N(C)[C@@H](CCCC)C(=O)N[C@@H](CCCCC)C(=O)N2CCC[C@H]2C(=O)N[C@@H](C(C)(C)C)C(=O)N[C@@H](CO)C(=O)N[C@H](C(=O)N[C@@H](CC(=O)O)C(N)=O)CSCC(=O)N[C@@H](Cc2ccccc2)C(=O)N[C@@H](Cc2c[nH]c3ccccc23)C(=O)N[C@@H](CC(=O)O)C1=O [Example 1374] ({CH2CO}-FWD[NHexGly]Y[Nle]N[Orn][NMeNle][Ahp(2)]P[Tle]SCD-NH2; thioether N-14)
- IC50: 24.9 nM

SMILES: CCCCCCN1CC(=O)N[C@@H](Cc2ccc(O)cc2)C(=O)N[C@@H](CCCC)C(=O)N[C@@H](CC(=O)O)C(=O)N[C@@H](CCCNC(=N)N)C(=O)N(C)[C@@H](CCCC)C(=O)N[C@@H](CCCCC)C(=O)N2CCC[C@H]2C(=O)N[C@@H](C(C)(C)C)C(=O)N[C@@H](CO)C(=O)N[C@H](C(=O)N[C@@H](CC(=O)O)C(N)=O)CSCC(=O)N[C@@H](Cc2ccccc2)C(=O)N[C@@H](Cc2c[nH]c3ccccc23)C(=O)N[C@@H](CC(=O)O)C1=O [Example 1375] ({CH2CO}-FWD[NHexGly]Y[Nle]DR[NMeNle][Ahp(2)]P[Tle]SCD-NH2; thioether N-14)
- IC50: 42.5 nM

SMILES: CCCCCCN1CC(=O)N[C@@H](Cc2ccc(O)cc2)C(=O)N[C@@H](CCCC)C(=O)N[C@@H](CC(=O)O)C(=O)N[C@@H](CCCN)C(=O)N(C)[C@@H](CCCC)C(=O)N[C@@H](CCCCC)C(=O)N2CCC[C@H]2C(=O)N[C@@H](C(C)(C)C)C(=O)N[C@@H](CO)C(=O)N[C@H](C(=O)N[C@@H](CC(=O)O)C(N)=O)CSCC(=O)N[C@@H](Cc2ccccc2)C(=O)N[C@@H](Cc2c[nH]c3ccccc23)C(=O)N[C@@H](CC(=O)O)C1=O [Example 1376] ({CH2CO}-FWD[NHexGly]Y[Nle]D[Orn][NMeNle][Ahp(2)]P[Tle]SCD-NH2; thioether N-14)
- IC50: 36.6 nM

SMILES: CCCCCCN1CC(=O)N[C@@H](Cc2ccc(O)cc2)C(=O)N[C@@H](CCCC)C(=O)N[C@@H](CC(=O)O)C(=O)N[C@@H](CCCNC(=N)N)C(=O)N(C)[C@@H](CCCC)C(=O)N[C@@H](CCCCC)C(=O)N2CCC[C@H]2C(=O)N[C@@H](C(C)(C)C)C(=O)N[C@@H](CC(=O)O)C(=O)N[C@H](C(=O)N[C@@H](CC(=O)O)C(N)=O)CSCC(=O)N[C@@H](Cc2ccccc2)C(=O)N[C@@H](Cc2c[nH]c3ccccc23)C(=O)N[C@@H](CC(=O)O)C1=O [Example 1377] ({CH2CO}-FWD[NHexGly]Y[Nle]DR[NMeNle][Ahp(2)]P[Tle]DCD-NH2; thioether N-14)
- IC50: 22.2 nM

SMILES: CCCCCCN1CC(=O)N[C@@H](Cc2ccc(O)cc2)C(=O)N[C@@H](CCCC)C(=O)N[C@@H](CC(N)=O)C(=O)N[C@@H](CCCNC(=N)N)C(=O)N(C)[C@@H](CCCC)C(=O)N[C@@H](CCCCC)C(=O)N2CCC[C@H]2C(=O)N[C@@H](C(C)(C)C)C(=O)N[C@@H](CO)C(=O)N[C@H](C(=O)N[C@@H](CC(=O)O)C(N)=O)CSCC(=O)N[C@@H](Cc2ccccc2)C(=O)N[C@@H](Cc2c[nH]c3ccccc23)C(=O)N[C@@H](CC(=O)O)C1=O [Example 1378] ({CH2CO}-FWD[NHexGly]Y[Nle]NR[NMeNle][Ahp(2)]P[Tle]SCD-NH2; thioether N-14)
- IC50: 41.3 nM

SMILES: CCCCCCN1CC(=O)N[C@@H](Cc2ccc(O)cc2)C(=O)N[C@@H](CCCC)C(=O)N[C@@H](CC(N)=O)C(=O)N[C@@H](CCCNC(=N)N)C(=O)N(C)[C@@H](CCCC)C(=O)N[C@@H](CCCCC)C(=O)N2CCC[C@H]2C(=O)N[C@@H](C(C)C)C(=O)N[C@@H](CC(=O)O)C(=O)N[C@H](C(=O)NCC(=O)O)CSCC(=O)N[C@@H](Cc2ccccc2)C(=O)N[C@@H](Cc2c[nH]c3ccccc23)C(=O)N[C@@H](CC(=O)O)C1=O [Example 1379] ({CH2CO}-FWD[NHexGly]Y[Nle]NR[NMeNle][Ahp(2)]PVDCG-OH; thioether N-14)
- IC50: 5.9 nM
